Measurements reported in ChEMBL document CHEMBL1177886, “Synthesis and biological evaluation of a novel series of 2,2-bisaminomethylated aurone analogues as anti-inflammatory and antimicrobial agents” (Eur J Med Chem, 2010).
In brackets after ≈: the same amount, converted by molar mass.

Columns and labels:
Trichoderma viride = test: Antifungal activity against Trichoderma viride TT after 72 hrs by disc diffusion method; format: functional; conditions: for MIC: Trichoderma viride, TT, 72 h
Penicillium chrysogenum = test: Antifungal activity against Penicillium chrysogenum NCIM 707 after 72 hrs by disc diffusion method; format: functional; conditions: for MIC: Penicillium chrysogenum, NCIM 707, 72 h
Candida albicans = test: Antifungal activity against Candida albicans NCIM 3100 after 72 hrs by disc diffusion method; format: functional; conditions: for MIC: Candida albicans, NCIM 3100, 72 h
Aspergillus fumigatus = test: Antifungal activity against Aspergillus fumigatus NCIM 902 after 72 hrs by disc diffusion method; format: functional; conditions: for MIC: Aspergillus fumigatus, NCIM 902, 72 h
Aspergillus niger = test: Antifungal activity against Aspergillus niger NCIM 545 after 72 hrs by disc diffusion method; format: functional; conditions: for MIC: Aspergillus niger, NCIM 545, 72 h
Bacillus subtilis [1] = test: Antibacterial activity against Bacillus subtilis NCIM 2546 after 24 hrs by disc diffusion method; format: functional; conditions: for MIC: Bacillus subtilis, NCIM 2546, 24 h
Escherichia coli [2] = test: Antibacterial activity against Escherichia coli NCIM 2065 after 24 hrs by disc diffusion method; format: functional; conditions: for MIC: Escherichia coli, NCIM 2065, 24 h
Bacillus subtilis [3] = test: Antibacterial activity against Bacillus subtilis after 24 hrs by disc diffusion method
Klebsiella pneumoniae [4] = test: Antibacterial activity against Klebsiella pneumoniae NCIM 5082 after 24 hrs by disc diffusion method; format: functional; conditions: for MIC: Klebsiella pneumoniae, NCIM 5082, 24 h
Staphylococcus aureus [5] = test: Antibacterial activity against Staphylococcus aureus NCIM 2120 after 24 hrs by disc diffusion method; format: functional; conditions: for MIC: Staphylococcus aureus, NCIM 2120, 24 h
Proteus vulgaris [6] = test: Antibacterial activity against Proteus vulgaris NCIM 2813 after 24 hrs by disc diffusion method; format: functional; conditions: for MIC: Proteus vulgaris, NCIM 2813, 24 h
Proteus vulgaris [7] = conditions: NCIM 2813
Escherichia coli [8] = conditions: NCIM 2065
Bacillus subtilis [9] = conditions: NCIM 2546
Staphylococcus aureus [10] = conditions: NCIM 2120
Klebsiella pneumoniae [11] = conditions: NCIM 5082
THP-1 [12] = test: Antiinflammatory activity in human THP1 cells assessed as inhibition of LPS-induced IL-6 production at 10 uM treated 30 mins before LPS challenge measured after 24 hrs by ELISA relative to control; format: functional
[13] = Cytotoxicity against human THP-1 cells at 10 uM; conditions: THP-1, 10 µM
THP-1 [14] = test: Antiinflammatory activity in human THP1 cells assessed as inhibition of LPS-induced TNFalpha production at 10 uM treated 30 mins before LPS challenge measured after 24 hrs by ELISA relative to control; format: functional
THP-1 [15] = test: Antiinflammatory activity in human THP1 cells assessed as inhibition of LPS-induced TNFalpha production at 1 uM treated 30 mins before LPS challenge measured after 24 hrs by ELISA relative to control; format: functional
THP-1 [16] = test: Antiinflammatory activity in human THP1 cells assessed as inhibition of LPS-induced IL-6 production at 1 uM treated 30 mins before LPS challenge measured after 24 hrs by ELISA relative to control; format: functional

Compound | inhibition zone (IZ) (Trichoderma viride) [mm] | MIC (Trichoderma viride) [µg/mL] | inhibition zone (IZ) (Penicillium chrysogenum) [mm] | MIC (Penicillium chrysogenum) [µg/mL] | inhibition zone (IZ) (Candida albicans) [mm] | MIC (Candida albicans) [µg/mL] | inhibition zone (IZ) (Aspergillus fumigatus) [mm] | MIC (Aspergillus fumigatus) [µg/mL] | inhibition zone (IZ) (Aspergillus niger) [mm] | MIC (Aspergillus niger) [µg/mL] | inhibition zone (IZ) (Bacillus subtilis [1]) [mm] | MIC (Bacillus subtilis [1]) [µg/mL] | MIC (Escherichia coli [2]) [µg/mL] | inhibition zone (IZ) (Klebsiella pneumoniae [4]) [mm] | MIC (Klebsiella pneumoniae [4]) [µg/mL] | inhibition zone (IZ) (Staphylococcus aureus [5]) [mm] | MIC (Staphylococcus aureus [5]) [µg/mL] | inhibition zone (IZ) (Proteus vulgaris [6]) [mm] | MIC (Proteus vulgaris [6]) [µg/mL] | inhibition at 10 µM (THP-1 [12]) [%] | other results
OC(Cn1cncn1)(Cn1cncn1)c1ccc(F)cc1F [FLUCONAZOLE] | 18 | 25 (≈ 81.6 µM) | 24 | 25 (≈ 81.6 µM) | 24 | 25 (≈ 81.6 µM) | 21 | 25 (≈ 81.6 µM) | 24 | 25 (≈ 81.6 µM) |  |  |  |  |  |  |  |  |  |  | 
COc1cc(OC)c2c(c1)OC(CN(C)C)(CN(C)C)C2=O | 15 | 25 (≈ 81.1 µM) | 15 | 50 (≈ 162 µM) | 16 | 25 (≈ 81.1 µM) | 18 | 25 (≈ 81.1 µM) | 16 | 50 (≈ 162 µM) | 14 | 50 (≈ 162 µM) | 50 (≈ 162 µM) | 15 | 50 (≈ 162 µM) | 14 | 50 (≈ 162 µM) | 15 | 50 (≈ 162 µM) |  | inhibition zone (IZ) (Bacillus subtilis [3]): 15 mm
CCN1CCN(CC2(CN3CCN(CC)CC3)Oc3cc(OC)cc(OC)c3C2=O)CC1 | 13 | 50 (≈ 112 µM) | 16 | 25 (≈ 56 µM) | 13 | 50 (≈ 112 µM) | 14 | 50 (≈ 112 µM) | 14 | 50 (≈ 112 µM) | 16 | 50 (≈ 112 µM) | 50 (≈ 112 µM) | 17 | 25 (≈ 56 µM) | 15 | 25 (≈ 56 µM) | 14 | 50 (≈ 112 µM) |  | inhibition zone (IZ) (Escherichia coli [2]): 16 mm
GENTAMICIN |  |  |  |  |  |  |  |  |  |  |  |  |  |  |  |  |  |  |  |  | IZ (Proteus vulgaris [7]): 24 mm; MIC (Proteus vulgaris [7]): 25 µg/mL; MIC (Escherichia coli [8]): 25 µg/mL; IZ (Bacillus subtilis [9]): 21 mm; MIC (Bacillus subtilis [9]): 25 µg/mL; MIC (Staphylococcus aureus [10]): 25 µg/mL; IZ (Klebsiella pneumoniae [11]): 24 mm; MIC (Klebsiella pneumoniae [11]): 25 µg/mL
COc1cc(OC)c2c(c1)OC(CN1CCOCC1)(CN1CCOCC1)C2=O | 15 | 25 (≈ 63.7 µM) | 23 | 25 (≈ 63.7 µM) | 15 | 50 (≈ 127 µM) | 18 | 25 (≈ 63.7 µM) | 24 | 25 (≈ 63.7 µM) | 16 | 25 (≈ 63.7 µM) | 25 (≈ 63.7 µM) |  | > 100 | 15 | 50 (≈ 127 µM) | 22 | 25 (≈ 63.7 µM) | 100 | inhibition zone (IZ) (Escherichia coli [2]): 16 mm; Activity [13]: 66%; inhibition at 10 µM (THP-1 [14]): 89%
CCN(CC)CC1(CN(CC)CC)Oc2cc(OC)cc(OC)c2C1=O | 16 | 25 (≈ 68.6 µM) | 15 | 50 (≈ 137 µM) | 16 | 25 (≈ 68.6 µM) | 17 | 25 (≈ 68.6 µM) | 17 | 25 (≈ 68.6 µM) | 18 | 25 (≈ 68.6 µM) | 25 (≈ 68.6 µM) | 17 | 25 (≈ 68.6 µM) | 16 | 25 (≈ 68.6 µM) | 17 | 25 (≈ 68.6 µM) | 74 | inhibition zone (IZ) (Bacillus subtilis [3]): 17 mm; Activity [13]: 37%; inhibition at 10 µM (THP-1 [14]): 28%
COc1cc(OC)c2c(c1)OC(CN1CCN(C)CC1)(CN1CCN(C)CC1)C2=O |  |  | 14 | 50 (≈ 119 µM) |  | > 100 | 15 | 50 (≈ 119 µM) | 14 | 50 (≈ 119 µM) | 14 | 50 (≈ 119 µM) | 50 (≈ 119 µM) |  | > 100 |  | > 100 | 16 | 25 (≈ 59.7 µM) | 97 | inhibition zone (IZ) (Escherichia coli [2]): 14 mm; Activity [13]: 29%; inhibition at 10 µM (THP-1 [14]): 76%
COc1cc(OC)c2c(c1)OC(CN1CCCCC1)(CN1CCCCC1)C2=O | 14 | 50 (≈ 129 µM) | 18 | 25 (≈ 64.3 µM) |  | > 100 | 16 | 50 (≈ 129 µM) | 17 | 25 (≈ 64.3 µM) | 18 | 25 (≈ 64.3 µM) | 25 (≈ 64.3 µM) | 18 | 25 (≈ 64.3 µM) | 16 | 25 (≈ 64.3 µM) | 15 | 50 (≈ 129 µM) | 82 | Activity [13]: 21%; inhibition at 10 µM (THP-1 [14]): 35%
CCN(C)CC1(CN(C)CC)Oc2cc(OC)cc(OC)c2C1=O |  | > 100 | 15 | 50 (≈ 149 µM) |  | > 100 | 14 | 50 (≈ 149 µM) |  | > 100 |  | > 100 | > 100 |  | > 100 |  | > 100 |  | > 100 |  | 
C[C@@H]1C[C@H]2[C@@H]3CCC4=CC(=O)C=C[C@]4(C)[C@@]3(F)[C@@H](O)C[C@]2(C)[C@@]1(O)C(=O)CO [DEXAMETHASONE] |  |  |  |  |  |  |  |  |  |  |  |  |  |  |  |  |  |  |  |  | inhibition at 1 µM (THP-1 [15]): 69%; inhibition at 1 µM (THP-1 [16]): 90%
CCCCN(CCCC)CC1(CN(CCCC)CCCC)Oc2cc(OC)cc(OC)c2C1=O | 16 | 25 (≈ 52.4 µM) | 24 | 25 (≈ 52.4 µM) | 17 | 25 (≈ 52.4 µM) | 22 | 25 (≈ 52.4 µM) | 26 | 25 (≈ 52.4 µM) | 21 | 25 (≈ 52.4 µM) | 25 (≈ 52.4 µM) | 21 | 25 (≈ 52.4 µM) | 18 | 25 (≈ 52.4 µM) | 22 | 25 (≈ 52.4 µM) | 37 | inhibition zone (IZ) (Bacillus subtilis [3]): 18 mm; Activity [13]: 65%; inhibition at 10 µM (THP-1 [14]): 17%
COc1cc(OC)c2c(c1)OC(CN1CCCC1)(CN1CCCC1)C2=O | 15 | 50 (≈ 139 µM) | 16 | 25 (≈ 69.4 µM) | 14 | 50 (≈ 139 µM) | 22 | 25 (≈ 69.4 µM) | 21 | 25 (≈ 69.4 µM) | 20 | 25 (≈ 69.4 µM) | 25 (≈ 69.4 µM) | 20 | 25 (≈ 69.4 µM) | 15 | 25 (≈ 69.4 µM) | 22 | 25 (≈ 69.4 µM) | 100 | inhibition zone (IZ) (Bacillus subtilis [3]): 18 mm; Activity [13]: 83%; inhibition at 10 µM (THP-1 [14]): 100%
